Literature values, collected in patent US20090246262A1, “EASILY APPLIED FIELD DRESSING FOR WOUNDS” (Valor Medical, Inc., priority 2008, published 2009).

Legend:
[1] = in vivo
[2] = upon contact with moist tissues

Structure (SMILES)	histotoxicity [1]	time to polymerize (remains as a monomer) [2]
C=C(C#N)C(=O)OC [Eastman 910]	histotoxic	
C=C(C#N)C(=O)OCC [ethyl]	histotoxic	
C=C(C#N)C(=O)OC [methyl homolog, methyl cyanoacrylate]	histoxicity severely limited its clinical usefulness	30 to 55 s
